From patent publication US5877334A, “Intermediates useful in solid phase synthesis method” (Abbott Laboratories, priority 1996, dated 1999)

Biological target: HIV1 protease (Human immunodeficiency virus type 1 group M subtype B, UniProt P04585)
Assay: inhibition of HIV1 protease
Type: biochemical
Conditions: A. Mono-ol (X = H); read-out: IC50 against HIV1 protease, A. Mono-ol (X = H)
Procedure: ^a The IC50 against HIV1 protease was measured according to the
method described in U.S. Pat. No. 5,354,866, issued October 11, 1994.

Structure (SMILES)	IC50 [nM]
CC(C)[C@H](NC(=O)CSc1ncccn1)C(=O)N[C@@H](Cc1ccccc1)C[C@H](O)[C@H](Cc1ccccc1)NC(=O)[C@@H](NC(=O)CSc1ncccn1)C(C)C [Example 10A]	< 1
CC(C)[C@H](NC(=O)Cc1csc(N)n1)C(=O)N[C@@H](Cc1ccccc1)C[C@H](O)[C@H](Cc1ccccc1)NC(=O)[C@@H](NC(=O)Cc1csc(N)n1)C(C)C [Example 8A]	< 1
COc1cc(CC(=O)N[C@H](C(=O)N[C@@H](Cc2ccccc2)C[C@H](O)[C@H](Cc2ccccc2)NC(=O)[C@@H](NC(=O)Cc2cc(OC)c(OC)c(OC)c2)C(C)C)C(C)C)cc(OC)c1OC [Example 9A]	< 1
CC(C)[C@H](NC(=O)CC1NC(=O)NC1=O)C(=O)N[C@@H](Cc1ccccc1)C[C@H](O)[C@H](Cc1ccccc1)NC(=O)[C@@H](NC(=O)CC1NC(=O)NC1=O)C(C)C (stereo partly shown) [Example 7A]	< 1
